Assays:
[1] = tested on: microorganisms other than the Eimeria; format: cell-based; conditions: across 1%, 3% and 5% solids and all species
[2] = tested on: microorganisms other than the Eimeria; format: cell-based; conditions: replicate sterility averaged across the 6 species; FIG. 13
E. tenella oocysts = format: cell-based; conditions: for relative difference in oocyst counts compared to group 1 (percentage difference), R1: replicate R1, post sporulation; for relative difference in oocyst counts compared to group 1 (percentage difference), R3: replicate R3, post sporulation
[3] = tested on: Eimeria oocysts (E. acervulina, E. brunetti, E. maxima, E. mitis, E. necatrix and E. tenella); assay: Sporulation of Eimeria oocysts in different media, all species (Example 1); format: cell-based; conditions: for Average sporulation % across all species: 48 hours at 27° C., 150 rpm, three replicates, six species
E. brunetti oocysts = assay: Sporulation in different media: sporulation and post-sporulation oocyst count (Example 1); format: cell-based; conditions: for relative difference in oocyst counts compared to group 1 (percentage difference), R1: replicate R1, post sporulation; for relative difference in oocyst counts compared to group 1 (percentage difference), R3: replicate R3, post sporulation
E. maxima oocysts [4] = format: cell-based; conditions: for relative difference in oocyst counts compared to group 1 (percentage difference), R1: replicate R1, post sporulation; for relative difference in oocyst counts compared to group 1 (percentage difference), R3: replicate R3, post sporulation
E. necatrix oocysts = assay: Sporulation in different media: sporulation and post-sporulation oocyst count (Example 1); format: cell-based; conditions: for relative difference in oocyst counts compared to group 1 (percentage difference), R1: replicate R1, post sporulation; for relative difference in oocyst counts compared to group 1 (percentage difference), R3: replicate R3, post sporulation
E. acervulina oocysts = format: cell-based; conditions: for relative difference in oocyst counts compared to group 1 (percentage difference), R1: replicate R1, post sporulation; for relative difference in oocyst counts compared to group 1 (percentage difference), R3: replicate R3, post sporulation
E. mitis oocysts [5] = format: cell-based; conditions: for relative difference in oocyst counts compared to group 1 (percentage difference), R1: replicate R1, post sporulation; for relative difference in oocyst counts compared to group 1 (percentage difference), R3: replicate R3, post sporulation
[6] = tested on: Candida albicans ATCC 10231; conditions: 27° C., FIG. 18A
Description: (§1) Each organism was exposed to each chemical mimicking the duration and conditions they would be used with for sporulation or sterilisation.
(§2) Organism suspensions were prepared by sub-culturing onto an appropriate growth plate and incubating under standard conditions. The growth was harvested and suspended in appropriate media. The starting titre for most organisms once inoculated into the test media was approximately ≤10^6 CFU/mL.
(§3) 0.1 mL of the harvested bacterial or fungal suspension was added to 9.9 mL of the solution being tested in a sterile glass vial (McCartney container). The inoculated solutions were incubated at 27° C. Zero hours samples were done with sterile water and not the solution being tested to determine a baseline for log reduction calculations. At the appropriate time point, 1 mL of sample was combined with 9 mL of sodium thiosulfate neutralizer (the 10:1 dilution). Serial dilutions in Peptone water (PEP) from 10^−2 to 10^−6 were plated out onto either TSA (bacterial) or SDA (fungal) plates. The 10^−1 dilution in neutraliser was also plated. Plates were incubated according to the organisms' requirements and the number of colonies counted at the end of the incubation period.

[7] = tested on: Pseudomonas aeruginosa ATCC 9027; conditions: 27° C.; FIG. 18A
Description: as §1, §2, §3

[8] = tested on: Staphylococcus aureus ATCC 6538; conditions: after the 48 hours, 27° C.; FIG. 18A
Description: as §1, §2, §3

Eimeria oocysts = assay: Sporulation at variable solids content (Example 2); format: cell-based; conditions: 1%, 3% and 5% solids
E. mitis oocysts [9] = assay: Sporulation in 2% Proxitane with anionic detergents, follow up trial (Example 4); format: cell-based; conditions: detergent 0.05% in 2% Proxitane; FIG. 19
Description: (§4) The 2% Proxitane (~1000 ppm peracetic acid) sporulation media was prepared as described in Example 1. Detergents were added to the 2% Proxitane (~1000 ppm peracetic acid) solution at two concentrations: 0.05% solution and 0.5% solution. A 30% solution of Sarkosyl in 2% Proxitane (~1000 ppm peracetic acid) was prepared first before diluting to the desired concentration. Docusate dissolved in water with heat (up 90° C.) before adding the Proxitane.
(§5) Oocysts were sporulated in 15 or 50 mL tubes with at least 80% headspace (i.e. 10 mL liquid in 50 mL tube max). The amount of solids (unsporulated oocysts+debris) in this experiments was set to 2%, i.e. a solids ratio of 1:49.
(§6) All samples were incubated at 27° C. and about 150 rpm in the shaking incubator for 48 hours. Following sporulation, samples were either stored at 4-8° C. or evaluated immediately.
(§7) Sporulation level and oocyst health was evaluated as described in Example 1.

E. maxima oocysts [10] = assay: Sporulation in 2% Proxitane with detergents, initial experiments (Example 4); format: cell-based
Description: as §4, §5, §6, §7

| Compound | sterility [2] | relative difference in oocyst counts compared to group 1 (percentage difference), R1 (E. tenella oocysts) | relative difference in oocyst counts compared to group 1 (percentage difference), R3 (E. tenella oocysts) | Average sporulation % across all species [3] | relative difference in oocyst counts compared to group 1 (percentage difference), R1 (E. brunetti oocysts) | relative difference in oocyst counts compared to group 1 (percentage difference), R3 (E. brunetti oocysts) | relative difference in oocyst counts compared to group 1 (percentage difference), R1 (E. maxima oocysts [4]) | relative difference in oocyst counts compared to group 1 (percentage difference), R3 (E. maxima oocysts [4]) | relative difference in oocyst counts compared to group 1 (percentage difference), R1 (E. necatrix oocysts) | relative difference in oocyst counts compared to group 1 (percentage difference), R3 (E. necatrix oocysts) | relative difference in oocyst counts compared to group 1 (percentage difference), R1 (E. acervulina oocysts) | relative difference in oocyst counts compared to group 1 (percentage difference), R3 (E. acervulina oocysts) | relative difference in oocyst counts compared to group 1 (percentage difference), R1 (E. mitis oocysts [5]) | relative difference in oocyst counts compared to group 1 (percentage difference), R3 (E. mitis oocysts [5]) | further results |
| --- | --- | --- | --- | --- | --- | --- | --- | --- | --- | --- | --- | --- | --- | --- | --- |
| [K+].[K+].[O]=[Cr](=[O])([O-])[O][Cr](=[O])(=[O])[O-] [2% potassium dichromate, potassium dichromate, reference compound] | failed to achieve sterility | – | – | – | – | – | – | – | – | – | – | – | – | – | sterility outcome (in words) [1]: failed to sterilise the material |
| O=S(=O)([N-]Cl)c1ccccc1.[Na+] [1% chloramine B, chloramine B] | – | −1.16% | 40.83% | 81% | −7% | 91% | −4% | −4% | 24% | −27.13% | 9.43% | −137% | 12.16% | 8% | – |
| O=CCCCC=O [0.2% glutaraldehyde, glutaraldehyde] | – | 3.12% | 30.08% | 78% | 3% | 91% | 3% | −3% | 7% | −61.49% | 1.31% | −1% | 8.68% | 1% | – |
| OO [0.5% hydrogen peroxide, hydrogen peroxide] | 80% | 17.92% | 26.75% | 81% | −13% | 92% | 5% | −13% | 25% | −15.15% | 11.16% | −298% | 29.90% | 17% | samples failing sterility (fail rate) [1]: 21%; sporulating oocysts compared with control group 1 ([3]; averaged sporulation from 3 replicates, across all the species tested (FIGS. 7-12)): comparable to or better than control group 1; reduction of titre before going back up at the last time point [6]: 4.32 logs; viability after treatment ([6]; after the 48 hours): still viable; time to inactivation [7]: within the first hour; viability after treatment [8]: still viable; sporulation compared with dichromate (in words) (Eimeria oocysts): good sporulation compared to dichromate except with 5% solids |
| CCCCCCCCCCCC(=O)N(C)CC(=O)[O-].[Na+] [sarkosyl, Sarkosyl] | – | – | – | – | – | – | – | – | – | – | – | – | – | – | sticking of debris to oocyst walls (E. mitis oocysts [9]): sticking of debris to oocyst walls was found |
| CCCCCCCCCCCCOS(=O)(=O)[O-].[Na+] [SDS] | – | – | – | – | – | – | – | – | – | – | – | – | – | – | percent sporulation (E. maxima oocysts [10]; detergent 0.5% in 2% Proxitane, 2% solids, 48 hours): 40%; sticking of debris and oocysts (E. maxima oocysts [10]; detergent in 2% Proxitane, data not shown): reduce sticking; oocyst damage (E. maxima oocysts [10]; upon prolonged storage): cause damage to the oocyst wall |
